According to US8067009B1, “Metalloproteinase oligopeptides and their therapeutic use” (priority 2011, dated 2011):
Where no end group is shown, it is not given here.

Columns and labels:
anti-peptide mouse IgG = assay: Anti-peptide immune response assay (Elisa) on serum of immunized mice; format: in vivo, Male C57BL/6 mice; conditions: read at 450 nm
Description: In another embodiment, the synthesized oligopeptides were biotinylated at N-terminal using four carbon spacers by Genscript (Pitcataway, N.J. 08554 USA) and conjugated to KLH protein. In an experiment performed on mice animals were procured, immunized, tumor induced and observed for effectiveness of the treatment of oligopeptide-induced immunotherapy.
The injections were prepared using 100 μl l of KLH conjugated biotinylated peptides and 100 μl of complete Freund's adjuvant (Sigma, St. Louis, Mo.).
Male C57BL/6 mice 6 weeks of age on arrival were purchased from Simonsen Laboratories, Gilroy, Calif. and maintained in microisolator cage under pathogen-free conditions on a 12-h light/12-h dark schedule for a week. All animals were cared for in accordance with institutional guidelines for the care and use of experimental animals. After housing for a week, the mice (n=5/group) were immunized by intraperitoneal injection on Day 0, and incomplete Freund adjuvant (Sigma) on Day 7, 14 and 28. The blood samples were tested for their immune response by standard Elisa test using microtiter plates. Repeating injections of synthetic peptides in mice produce an immune response to specific individual peptides. Various dilutions were tried and examples of dilutions tried are 1:100, 1:1000 and 1:10000.
All four peptides were conjugated covalently to keyhole limpet hemocyanin (KLH) protein. In a typical experiment 1 mg of the peptide, 4 mg of KLH was dissolved in 5 ml of 0.01 M NaHCO3 and 2 μl of glutaraldehyde and stirred overnight. At the end 100 μl of 1M glycine ethyl ester to the final concentration of 0.1 M and left for 30 min at room temperature. Then precipitated with 4-5 vol of cold acetone at −70 C for 30 minute. Then briefly warmed at room temperature and pellet at 10,000 g for 10 min. The pellet was dissolved in 1 ml of 0.1M NaHCO3 and stored at −20° C.
Microtiter plates were coated with individual peptide in 100 µl/well […] carbonate buffer, pH 9.5 for 20 h at 20° C. After washing, wells were incubated with serial dilution of mouse serum in PBS/0.5% BSA, Tween 20 (binding buffer, BB). After washing, well were incubated with 100 µl/well rabbit anti-mouse IgG polyclonal antibody conjugated with horseradish peroxidase (HRP) in BB for 30 rain at 37° C. After washing, the titer of anti-peptide mouse IgG was determined by color reaction with TMB substrate solution at 450 nm.

[1] = tested on: human cervical cancer HeLa cells; assay: Matrigel invasion with anti-sera from immunized mice; format: cell-based; conditions: anti-sera 1:100 dilution, 24 hours, FIGS. 3A-3D
Description: Human cervical cancer (Hela) and murine melanoma B16F0 cells obtained from ATCC (American Type Culture Collection, Rockville, Md.) were maintained in Dulbecco's modified Eagle's medium supplemented with 10% fetal bovine serum and antibiotics. The media and sera used were obtained from ATCC, and antibiotics (penicillin and streptomycin) were from Gibco BRL, Long Island, N.Y.
Invasion studies were conducted using Matrigel™ (Becton Dickinson) inserts in 24-well plates. Suspended in medium containing anti-sera from the experimental immunized mice 1:100 dilution, human cervical cancer HeLa cells seeded on the insert in the well. The well has human dermal fibroblast primed media as chemotaxtant. The plates with the inserts were then incubated in a culture incubator equilibrated with 95% air and 5% CO: for 24 hours. After incubation, the media from the wells were withdrawn. The cells on the upper surface of the insert were gently scrubbed away with cotton swabs. The cells that had penetrated the Matrigel™ membrane were stained with hematoxylin and eosin (H&E) and visually counted under the microscope.

[2] = column 5, serum dilution 1:1000
[3] = column 5, serum dilution 1:10000
[4] = column 6, serum dilution 1:1000
[5] = column 6, serum dilution 1:10000
[6] = column 7, serum dilution 1:1000
[7] = column 7, serum dilution 1:10000
[8] = column 8, serum dilution 1:1000
[9] = column 8, serum dilution 1:10000
[10] = column 9, serum dilution 1:1000
[11] = column 9, serum dilution 1:10000
[12] = column 10, serum dilution 1:100
[13] = column 10, serum dilution 1:1000
[14] = column 10, serum dilution 1:10000
[15] = column 11, serum dilution 1:100
[16] = column 11, serum dilution 1:1000
[17] = column 11, serum dilution 1:10000
[18] = column 12, serum dilution 1:100
[19] = column 12, serum dilution 1:1000
[20] = column 12, serum dilution 1:10000

Substance	Elisa Test pep before B16FO given (anti-peptide mouse IgG; column 5, serum dilution 1:100)	Elisa Test pep before B16FO given (anti-peptide mouse IgG; [2])	Elisa Test pep before B16FO given (anti-peptide mouse IgG; [3])	Elisa Test pep before B16FO given (anti-peptide mouse IgG; column 6, serum dilution 1:100)	Elisa Test pep before B16FO given (anti-peptide mouse IgG; [4])	Elisa Test pep before B16FO given (anti-peptide mouse IgG; [5])	Elisa Test pep before B16FO given (anti-peptide mouse IgG; column 7, serum dilution 1:100)	Elisa Test pep before B16FO given (anti-peptide mouse IgG; [6])	Elisa Test pep before B16FO given (anti-peptide mouse IgG; [7])	Elisa Test pep before B16FO given (anti-peptide mouse IgG; column 8, serum dilution 1:100)	Elisa Test pep before B16FO given (anti-peptide mouse IgG; [8])	Elisa Test pep before B16FO given (anti-peptide mouse IgG; [9])	Elisa Test pep after B16FO given (anti-peptide mouse IgG; column 9, serum dilution 1:100)	Elisa Test pep after B16FO given (anti-peptide mouse IgG; [10])	Elisa Test pep after B16FO given (anti-peptide mouse IgG; [11])	Elisa Test pep after B16FO given (anti-peptide mouse IgG; [12])	Elisa Test pep after B16FO given (anti-peptide mouse IgG; [13])	Elisa Test pep after B16FO given (anti-peptide mouse IgG; [14])	Elisa Test pep after B16FO given (anti-peptide mouse IgG; [15])	Elisa Test pep after B16FO given (anti-peptide mouse IgG; [16])	also measured
-D-T-D-D-R-F-G-F- (DTDDRFGF; also: biotinylated, KLH conjugate) [M MP-9 A-2, MMP-9 oligopeptide, biotinylated and conjugated to KLH for immunization]	3.581	.646	.224	3.863	1.339	.261	3.870	2.856	.477	3.238	.360	.175	3.635	.526	.203	3.609	.859	.235	3.465	.277	Elisa Test pep after B16FO given (anti-peptide mouse IgG; [17]): .161; Elisa Test pep after B16FO given (anti-peptide mouse IgG; [18]): 3.86; Elisa Test pep after B16FO given (anti-peptide mouse IgG; [19]): .274; Elisa Test pep after B16FO given (anti-peptide mouse IgG; [20]): .348
-C-H-F-P-F-I-F-E-G-R-S-Y-S-A-C- (CHFPFIFEGRSYSAC; cysteine pairing not given here; also: biotinylated, KLH conjugate) [MMP-9 A-1, MMP-9 oligopeptide, biotinylated and conjugated to KLH for immunization]	3.898	3.402	.394	3.868	1.901	.274	3.843	1.033	.228	3.895	2.127	.330	3.897	3.624	.645	3.864	1.875	.244	3.820	.999	cells invading through the Matrigel compared to control [1]: more in number compared to MMP-9 A1 treated cells; Elisa Test pep after B16FO given (anti-peptide mouse IgG; [17]): .226; Elisa Test pep after B16FO given (anti-peptide mouse IgG; [18]): 3.87; Elisa Test pep after B16FO given (anti-peptide mouse IgG; [19]): 2.01; Elisa Test pep after B16FO given (anti-peptide mouse IgG; [20]): .22
